The record followed here is patent US6949529B2, “Compositions containing lysophosphotidic acids which inhibit apoptosis and uses thereof” (Sky High, LLC, priority 1997, dated 2005).

In experiment [1] the test system is rat neonatal cardiomyocytes. Briefly: Cardiomyocyte death induced by ischemia and reperfusion (in vitro model). The experiment is classed as cell-based. As to conditions: mixture with PEG (FIG. 14). On the procedure: Cardiomyocytes were prepared from hearts of day-old Sprague Dawley rats by trypsinization and mechanical disaggregation (Simpson, (1985)) Circ. Res. 56:884-894. The cells were resuspended in MEM, 1×MEM vitamins (Gibco), 5% fetal bovine serum and 50 U/ml penicillin-G and pre-plated for 30 minutes to reduce contamination of non-myocytes. The non-adherent cardiac myocytes were separated and seeded in 2 ml in 35 mm dishes at a density of 3.5×10^5 viable cells per ml. The cells were allowed to adhere for 16-24 hours in a 37° C./5% CO2 humidified incubator.
For serum deprivation, the medium was replaced with fresh serum-free RPMI, whereas serum/glucose deprivation was performed using glucose-free RPMI. The induction of cell death by adriamycin or C2-ceramide was accomplished by the addition of the agent prepared in serum-free RPMI. As a model of ischemia, cultures in serum and glucose free RPMI were placed in an airtight chamber and the latter was continuously perfused with oxygen-free gas overlay of 95% N2/5% CO2 for 8 hours at 37° C. […]
Because cardiomyocytes are terminally differentiated non-dividing cells, viability was determined by measurement of the decrease in the relative number of adherent cells. […] Adherent cardiomyocytes were collected from culture dishes using 0.25% Trypsin/0.05% EDTA and counted on Coulter Counter ZM and Coulter Channelyzer 256.

The subject of the next experiment is C3H/10T½ cells. Briefly: Effect of proteins on anti-apoptotic activity of soy LPA, C3H/10T½ cell assay. The experiment is classed as cell-based. As to conditions: 1:10 soy-LPA to protein (weight:weight), 24 h serum deprivation. On the procedure:
Soy derived LPA (soy-LPA) (Avanti® Polar Lipids, Inc., Alabaster, Ala.) was stored in an organic solution and was dried immediately prior to assay using a Speed Vac (Savant Instruments, Hicksville, N.Y.). Tested proteins were resuspended at 10 mg/mL in a bicarbonate buffered saline/EDTA solution (50 mM NH4HCO3, 104 mM NaCl, 250 μM EDTA) prior to being added to dried soy-LPA at a 1:10 soy-LPA to protein (weight:weight) ratio. The mixture was then sonicated for 5 minutes using a high power 80 Watt sonication bath (Laboratory Supplies Co., Hicksville, N.Y.). Following sonication, concentrated LPA/protein mixtures were left standing for 15 minutes at room temperature prior to dilution in cell culture assay media.
The effect of various proteins on the ability of LPA to protect serum-starved cells from apoptotic death was measured using the C3H/10T½ cell assay, performed as described in Example 2, above. Log phase cells were seeded in 60 mm Petri dishes at 175-350 cells per cm^2 and maintained in Basal Medium Eagle (BME) supplemented with 10% fetal calf serum (Hyclone, Logan, Utah). At time zero, serum containing media was replaced with sterile filtered BME containing the LPA/protein mixture to be tested. After 24 hours of treatment, serum deprived release (SDR) cells (the apoptotic cell population) and adherent (ADH) cells were separated and counted using an electronic cell counter (Coulter Corporation, Hialea, Fla.). SDR cells were counted with the lower threshold setting at 6.3 μm and were defined as the apoptotic cells dying in response to cultivation in serum-free-media. Approximately 95% of the SDR cells are confirmed to be apoptotic as previously shown by size, ultrastructure and DNA fragmentation analysis. Adherent cells were removed by treatment with a Hanks' balanced salt solution containing 0.05% trypsin and 0.53 mM EDTA and were counted with the lower threshold setting at 11.01 μm. All samples were tested in triplicate and serum-deprived controls (BME only) were assayed at both the beginning and end of each experiment.
The effects of various proteins alone or in combination with LPA are expressed as percent cells saved from apoptosis. When C3H10T½ cells were treated with 10 μg/mL soy LPA without protein, 8.0% of the cells were saved. The degree of protection from apoptosis afforded by protein alone, added to the medium at a concentration of 0.1% (wt/vol.), varied from 0.9% to 27.7% of cells saved from apoptosis. An unusually high percentage of cells were protected from serum-starvation-induced apoptosis by casein. This value may be artificially high, as casein preparations have been known to contain growth factors, including insulin-like growth factors (IGF) IGF1 and IGF2. IGF2 is a mitogen that can mask the serum deprivation-induced apoptotic response in these cells.

Experiment [2] can be described thus: Electrophoresis radiobinding assay on native polyacrylamide gel. As to conditions: 1 nM labeled 18:1-LPA/45 μg protein, 37° C., 60 minutes. The format is binding. As to the method:
Electrophoresis radiobinding assay. Proteins were analyzed on native polyacrylamide gels following incubation with ^3H-labeled 18:1-LPA. ^3H-labeled lysophosphatidic acid (1-oleyl) (DuPont NEN Products, Boston, Mass.) was added to tested proteins at 1 nM labeled 18:1-LPA/45 μg protein. Mixtures were incubated in a bicarbonate buffered saline/EDTA solution at 37° C. for 60 minutes. Incubated samples were mixed with native gel sample buffer (312 mM Tris pH 6.8, 50% glycerol, 0.05% bromophenol blue) and loaded entirely onto an 8% discontinuous native polyacrylamide gel. Following electrophoresis, proteins were fixed into the gels using an aqueous solution consisting of glacial acetic acid, 10% (vol/vol) and methanol 30% (vol./vol.) solution. Fixed gels were then incubated for 60 minutes in autoradiography enhancer (EN^3HANCE, DuPont NEN Products, Boston, Mass.), and dried onto 3M chromatography paper (Whatman, Clifton, N.J.) and exposed to autoradiography film (X-Omat, Kodak, Rochester, N.Y.) for 72 hours at −80° C.

Experiment [3] in a line: Size shift assay on Superdex S75 column. The experiment is classed as binding. As to conditions: soy LPA with 0.5 μCi ^3H-labeled 18:1-LPA, with test protein. As to the method:
Size shift assay. Size analysis of LPA both with and without protein was performed using a Superdex® S75 column (Pharmacia Biotech, Uppsala, Sweden). Soy LPA was combined in a chloroform solution with 0.5 μCi ^3H-labeled 18:1-LPA (DuPont NEN Products, Boston, Mass.), dried under vacuum and resuspended by sonication in a buffered solution (50 mM ammonium bicarbonate, 154 mM sodium chloride, pH 8.0) in the presence or absence of test protein. The ammonium bicarbonate/sodium chloride solution was used as the mobile phase at a flow rate of 1 ml/min. One-minute fractions were collected for 30 minutes following sample injection. Fractions were counted in scintillant solution using a liquid scintillation counter (Beckman Instruments, Irvine, Calif.). Calibration was performed using a standard solution containing purified proteins (BioRad, Hercules, Calif.).

As to `CCCCCCCC/C=C\CCCCCCCC(=O)OCC(O)COP(=O)(O)O` (stereo not shown) [18:1 LPA, oleoyl-lysophosphatidic acid], in experiment [1], the “cardiomyocyte death induced by ischemia and reperfusion” value is given as “equally protect”.

In the case of “Albumin (Fatty Acid Depleted): fatty acid depleted (FAD) bovine serum albumin (BSA)”, the “Protein + 10 μg/mL Soy LPA, percent cells saved from apoptosis” value in the experiment with C3H/10T½ cells is recorded as 58.7%. In addition, in experiment [2], the “Detectable Acrylamide Gel ^3H LPA Binding (+/−)” value is on record as “bind to 18:1-LPA”. Also, the “3H-LPA Size Shift Analysis (+/−)” value in experiment [3] was “most of the LPA was bound to BSA”.
